Values quoted from earlier work as cited in article PMC8356818 (Chemical Science, 2021).
One block for each molecule: values may come before it.

What was measured:
[1] = direct stopped-flow measurements
[2] = not given; remark: listed apart in the source
[3] = H4qp2 ligand, 25 °C

pMn (stability in water): 4.7
Molecule: C[C@@H]1N[C@@H]2CCCC[C@H]2NCCN[C@@H]2CCCC[C@H]2N[C@@H](C)c2cccc1n2.[Cl-].[Cl-].[Mn+2] [Complex M40401]
catalytic rate [1]: approximately 1.5 × 10^9 M^−1 s^−1

Mn estimated to be lost (release of free manganese) (neutral pH): approximately 30%
Molecule: Mn^IIBr8TM-4-PyP^4+
estimated log kcat if the catalyst were fully intact [2]: exceed 8.67
log kcat ([2]; determined by the cytochrome c assay): 8.34

pKL1 ([3]; KL1 = [(H5qp2)^+][H^+]/[(H6qp2)^2+]): 4.47 (±0.08)
pKL2 ([3]; KL2 = [(H4qp2)][H^+]/[(H5qp2)^+]): 7.18 (±0.03)
Molecule: Oc1ccc(O)c(CN(CCN(Cc2ccccn2)Cc2cc(O)ccc2O)Cc2ccccn2)c1 [Complex H4qp2, N,N′-bis(2,5-dihydroxybenzyl)-N,N′-bis(2-pyridinylmethyl)-1,2-ethanediamine]
